# Test results: patent publication US20230391783A1, “COMPOUND CONTAINING 2,4-THIAZOLE RING, PREPARATION METHOD THEREFOR, AND APPLICATION THEREOF” (SHANDONG UNIVERSITY, priority 2021, published 2023)
# Tested on: lymphocytes (fresh spleen cells)
# Assay: Lymphocyte proliferation assay (ConA-induced spleen cells)
# Assay type: cell-based, rat
# Conditions: 48 hours; for IC50: Rattus norvegicus, inhibition of lymphocyte proliferation, 5 μg/mL ConA; for Inhibition rate (%): lymphocyte proliferation induced with 5 μg/mL ConA, test concentration not given
# Method: Lymphocytotoxicity test: rats were euthanized by spinal dislocation method, their spleens were aseptically removed and ground to make a single cell suspension. After removing red blood cells with 2 mL of red blood cell lysis buffer, the cell concentration was adjusted to 2×10^6 cells/mL using RPMI-1640 medium containing 10% fetal bovine serum (FBS). Next, 100 μL of the 2×10^6 cells/mL cell suspension and 100 μL of the appropriate concentration of the tested compound were added to each well of a 96-well plate, and the plate was incubated at 37° C. with 5% CO2 for 48 hours. At the end of the incubation period, 10 μL of CCK8 was added to each well, and the plate was returned to the incubator for 5-7 hours. The OD450 value was then measured at 450 nm using an enzyme-linked immunosorbent assay reader.
# Lymphocyte proliferation assay: fresh spleen cells at a concentration of 2×10^6 cells/mL were incubated for 48 hours in an incubator maintained at 37° C. and 5% CO2 for 48 hours, and the culture medium was induced for cell proliferation with 5 μg/mL of ConA, and the appropriate concentration of the tested compound was added to test its inhibitory activity on lymphocyte proliferation. The test results of some compounds are shown in the table below and figures accompanying the application: […]
smiles,measurement,value
O=C(c1csc(-c2cnn3cccnc23)n1)N1CCC[C@H]1c1cccnc1 [IA-1],IC50,210 ± 8.87 nM
same,Inhibition rate (%),81.38%
O=C(NCc1cccnc1)c1csc(NC(=O)c2cnn3cccnc23)n1 [IA-2],IC50,439 ± 24.2 nM
same,Inhibition rate (%),65.17%
CC(C)=CCOC(=O)c1csc(-c2cnn3cccnc23)n1 [IA-4],IC50,438 ± 12.3 nM
same,Inhibition rate (%),28.23%
O=C(NCc1ccc(F)cc1F)c1csc(-c2cnn3ccccc23)n1 [IA-5],Inhibition rate (%),47.15%
O=C(Nc1ccccc1)c1csc(-c2cnn3cccnc23)n1 [IA-6],Inhibition rate (%),40.69%
CC(C)=CCC/C(C)=C/COC(=O)c1csc(-c2cnn3cccnc23)n1 [IA-7],IC50,487 ± 18.3 nM
same,Inhibition rate (%),52.55%
O=C(NCc1ccc(Cl)cc1Cl)c1csc(-c2cnn3cccnc23)n1 [IA-8],Inhibition rate (%),43.39%
O=C(c1csc(-c2cnn3cccnc23)n1)N1CCC[C@H]1c1ccccc1 [IA-9],IC50,399 ± 15.2 nM
same,Inhibition rate (%),58.26%
O=C(Nc1cccnc1)c1csc(-c2cnn3cccnc23)n1 [IA-10],IC50,421 ± 21.1 nM
same,Inhibition rate (%),59.61%
O=C(NCc1ccccc1)c1csc(-c2cnn3cccnc23)n1 [IA-11],IC50,263 ± 13.4 nM
same,Inhibition rate (%),70.42%
O=C(NCCc1cccnc1)c1csc(-c2cnn3cccnc23)n1 [IA-12],IC50,236 ± 17.2 nM
same,Inhibition rate (%),83.63%
O=C(c1csc(-c2cnn3cccnc23)n1)N1CCC[C@H]1c1ccncc1 [IA-13],IC50,410 ± 33.5 nM
same,Inhibition rate (%),59.01%
COC(=O)[C@@H]1C[C@@H](O)CN1C(=O)c1csc(-c2cnn3cccnc23)n1 [IA-15],Inhibition rate (%),30.78%
COC(=O)C1CCCCN1C(=O)c1csc(-c2cnn3cccnc23)n1 (centres unmarked) [IA-16],Inhibition rate (%),28.83%
O=C(c1csc(-c2cnn3cccnc23)n1)N1CCC[C@H]1c1cc(F)ccc1F [IA-17],IC50,436 ± 33.4 nM
same,Inhibition rate (%),46.55%
O=C(NCCC(F)(F)F)c1csc(-c2cnn3cccnc23)n1 [IA-18],Inhibition rate (%),43.09%
O=C(NCC(O)C(F)(F)F)c1csc(-c2cnn3cccnc23)n1 (centres unmarked) [IA-19],Inhibition rate (%),41.89%
O=C(NC1CCC(C(F)(F)F)CC1)c1csc(-c2cnn3cccnc23)n1 (centres unmarked) [IA-20],Inhibition rate (%),42.49%
O=C(NCCc1ccccn1)c1csc(-c2cnn3cccnc23)n1 [IA-21],IC50,488 ± 22 nM
same,Inhibition rate (%),44.14%
O=C(NCc1cncnc1)c1csc(-c2cnn3cccnc23)n1 [IA-22],Inhibition rate (%),32.73%
O=C(c1csc(-c2cnn3cccnc23)n1)N1CCN(c2cccnc2)CC1 [IA-23],IC50,350 ± 17 nM
same,Inhibition rate (%),60.57%
CC(C)=CCC/C(C)=C/CNC(=O)c1csc(-c2cnn3cccnc23)n1 [IA-24],IC50,457 ± 30.6 nM
same,Inhibition rate (%),55.71%
Cc1cnc2c(-c3nc(C(=O)NCCc4ccccn4)cs3)cnn2c1 [IA-25],Inhibition rate (%),37.24%
O=C(c1nc(C(=O)N2CCC[C@H]2c2cccnc2)cs1)c1c[nH]c2ccccc12 [IIA-1],Inhibition rate (%),65.32%
CC(C)=CCC/C(C)=C/CC/C(C)=C/COC(=O)c1csc(C(=O)c2c[nH]c3ccccc23)n1 [IIA-2],Inhibition rate (%),25.83%
C#COC(=O)c1csc(C(=O)c2c[nH]c3ccccc23)n1 [IIA-3],Inhibition rate (%),47.15%
CC(C)=CCOC(=O)c1csc(C(=O)c2c[nH]c3ccccc23)n1 [IIA-4],Inhibition rate (%),48.95%
CC(C)=CCC/C(C)=C/COC(=O)c1csc(C(=O)c2c[nH]c3ccccc23)n1 [IIA-5],Inhibition rate (%),57.51%
